From US20220089540A1 (Board of Trustees of Michigan State University, priority 2019, published 2022)
Values joined by “and” are separate entries in the source; they are usually repeats but may differ in a detail not shown here. Equal entries are not always repeated. Where two headings read alike, the source gives them in different places.

Assays:
[1] = system: inducible nitric oxide synthase (iNOS); experiment: iNOS suppression / NO assay in LPS-stimulated macrophages or RAW264.7 cells (Griess reaction); type: cell-based, mouse; conditions: Mus musculus; for activity at 0.3 µM: RAW264.7, 24 h; for activity at 0.125 µM / activity at 0.5 µM: RAW264.7, read-out: NO Assay
Method: Macrophages or RAW264.7 like-cells were treated with various concentrations of rexinoids and stimulated with lipopolysaccaride (LPS) to activate inducible nitric oxide synthase (iNOS) to produce nitric oxide. This in vitro iNOS assay was rapid, reproducible, quantitative and predictive. Nitric oxide is implicated in the apoptosis of cancer cells via regulation of RXRs. There is a tight correlation between the % reduction of iNOS and efficacy in preclinical lung cancer models. Lower numbers indicate higher efficacy.
RAW264.7 cells were incubated with 300 nM rexinoids and stimulated with 1-2 ng/ml lipopolysaccaride (LPS) for 24 hours to activate inducible nitric oxide synthase (iNOS) to produce nitric oxide. Nitric oxide released into the media was measured by the Griess reaction.
Also, for Table 6, the iNOS suppression is the percent of the LPS-stimulated control where the compounds were measured at 100 nM or 300 nM.
Macrophages or RAW264.7 cells were treated with various concentrations of rexinoids listed in Table 7 and stimulated with lipopolysaccaride (LPS) to activate inducible nitric oxide synthase (iNOS) to produce nitric oxide. Nitric oxide (NO) is implicated in the apoptosis of cancer cells via regulation of RXRs. There is a tight correlation between the % reduction of iNOS and efficacy in preclinical lung cancer models. The in vitro iNOS assay is rapid, reproducible, quantitative and predictive, as NO production is measured in culture medium using the Griess reaction. Values are either presented as % inhibition or IC50 values.

SREBP = SREBP induction in human liver (HepG2) cells, RT-PCR; type: cell-based; set-up: key to SREBP: fold induction vs DMSO control; conditions: for SREBP activation: fold induction compared to DMSO, several values per cell, Table 6; for fold induction at 0.3 µM: human, HepG2 cells (human liver carcinoma), read-out: Safety SREBP mRNA fold induction at 300 nM; for SREBP: Control 1.00, lower numbers indicate better safety, Table 2
Method: The SREBP transcription factor is involved in triglyceride synthesis, and its activation correlates with increased triglycerides in vivo. […] Lower numbers indicate better safety. […] Lower numbers indicate better safety. Also, for Table 6, SREBP activation was measured as fold induction compared to DMSO, where a lower value indicates the compound is an improvement over a control.

PD-L1 = PD-L1 induction in macrophages or RAW264.7 cells with cancer cell conditioned media (flow cytometry); type: cell-based, mouse; conditions: for PD-L1 Levels: Table 4, Control 43.3; for PD-L1: Table 2, Control 39.8, higher numbers indicate better upregulation
Method: RAW 264.7 mouse macrophage-like (ATCC) and E18-14C-27 (Wu et al., Cancer Res. 62, 6376-6380 (2002)) cells were cultured in DMEM supplemented with 10% fetal bovine serum (FBS). RAW 264.7 cells were cultured at 50000/well in a 6 well plate for 24 hours to determine PD-L1 levels. E18-14C-27 cells were cultured for 72 hours in the presence of LG268 for protein levels. Conditioned media was collected from E18-14C-27 at 60-70% confluence for 24 hours; media was then collected and centrifuged at 900 rpm for 5 minutes to eliminate any cell debris.
For PD-L1 staining, RAW 264.7 cells were plated at 25000 cells/ml in 6 well plates for 24 hours before adding conditioned media from E18-14C-27 and LG268. RAW 264.7 cells were cultured for additional 24 hours with E18-14C-27 conditioned media and LG268. […] THP-1 cells were stained and analyzed for the levels of PD-L1 following the same protocol.
Inhibitory receptors on lymphocytes such as PD-1 (programmed cell death protein 1) are important immune checkpoints that protect against autoimmunity as the interaction between PD-L1 (ligand) and the PD-1 receptor expressed on immune cells suppresses T cell activity. Immuno-oncology is revolutionizing cancer treatment, and enormous research efforts are ongoing to identify drugs that upregulate PD-L1 so that they can be combined with checkpoint inhibitors to boost efficacy. Macrophages or RAW264.7 cells are treated with conditioned media from cancer cells and rexinoids, and PD-L1 expression determined by flow cytometry. Higher numbers indicate better upregulation of PD-LI.
Using methods described herein, macrophages or RAW264.7 cells were treated with selected rexinoids and with conditioned media from cancer cells. Structures of the rexinoids are shown below.
PD-L1 expression was determined by flow cytometry.

[2] = at 300 nM, percent of the LPS-stimulated control, lower is better, Table 6, read-out: iNOS suppression

C=C(c1ccc(C(=O)O)cc1)c1cc(C(C)(C)C)ccc1OCC [drawing 108]
activity at 0.3 µM [1, 2]: 67% | SREBP activation (SREBP): 2.1 fold induction

C=C(c1ccc(C(=O)O)cc1)c1cc(C(C)C)c(OC(C)C)cc1C [drawing 74]
fold induction at 0.3 µM (SREBP; 300 nM, HepG2, Table 5): 1.08 ± 0.1

CC(C)(C)c1cc(-n2c(C(F)(F)F)nc3cc(C(=O)O)ccc32)cc(C(C)(C)C)c1 [drawing 69]
fold induction at 0.3 µM (SREBP; 300 nM, HepG2, Table 5): 1.58 ± 0.2

C=C(c1ccc(C(=O)O)cc1)c1cc(C(C)(C)C)cc(C(C)(C)C)c1 [drawing 76]
fold induction at 0.3 µM (SREBP; 300 nM, HepG2, Table 5): 1.12 ± 0.5

CC(/C=C/[C@@H]1C[C@]1(C)c1ccc2c(c1)C(C)(C)CCC2(C)C)=C\C(=O)O [VTP194204]
PD-L1 Levels (PD-L1; 100 nM): 63.8 | PD-L1 Levels (PD-L1; 1000 nM): 70.9

CCCCN(c1cc(C(C)(C)C)cc(C(C)(C)C)c1)c1ccc(C(=O)O)cn1 [drawing 83]
fold induction at 0.3 µM (SREBP; 300 nM, HepG2, Table 5): 5.6 ± 3.6

CCN(c1ccc(C(=O)O)cn1)c1cc(C(C)(C)C)ccc1C [Compound 12, 6-[(5-tert-butyl-2-methylphenyl)(ethyl)amino]pyridine-3-carboxylic Acid]
PD-L1 (PD-L1; 100 nM): 45.8 | activity at 0.125 µM [1]: 44.2% | activity at 0.5 µM [1]: 16.7% | SREBP (SREBP; 300 nM): 1.69

CC(C)(C)c1cc(N(Cc2ccccc2)c2ccc(C(=O)O)cn2)cc(C(C)(C)C)c1 [drawing 93]
fold induction at 0.3 µM (SREBP; 300 nM, HepG2, Table 5): 1.94 ± 0.04

C=C(c1ccc(C(=O)O)cc1)c1cc2c(cc1C)C(C)(C)CCC2(C)C [drawing 61]
fold induction at 0.3 µM (SREBP; 300 nM, HepG2, Table 5): 2.23 ± 0.5

C=C(c1ccc(C(=O)O)cc1)c1cc(C(C)C)c(OCC(C)C)cc1C [drawing 71]
fold induction at 0.3 µM (SREBP; 300 nM, HepG2, Table 5): 1.67 ± 0.2

CC(C)N(c1cc(C(C)(C)C)cc(C(C)(C)C)c1)c1ncc(C(=O)O)cn1
fold induction at 0.3 µM (SREBP; 300 nM, HepG2, Table 5): 2.46 ± 0.8

CC(C)(C)c1cc(-n2c(C(F)(F)F)nc3cc(C(=O)O)ccc32)cc(C(C)(C)C)c1 [drawing 109]
activity at 0.3 µM [1, 2]: 45% | SREBP activation (SREBP): 3.4 fold induction and 2.1 fold induction

CCOc1c(N(CC)c2ccc(C(=O)O)cc2)cc(C(C)(C)C)cc1C(C)(C)C [drawing 67]
fold induction at 0.3 µM (SREBP; 300 nM, HepG2, Table 5): 1.59 ± 0.2

CC(C)(C)c1cc(-n2c(C(F)(F)F)nc3cc(C(=O)O)ccc32)cc(C(C)(C)C)c1 [Compound 7, 1-(3,5-di-tert-butylphenyl)-2-(trifluoromethyl)-1H-1,3-benzodiazole-5-carboxylic Acid]
PD-L1 (PD-L1; 100 nM): 44.2 | activity at 0.3 µM ([1]; read-out: iNOS (300 nM)): 55% | activity at 0.125 µM [1]: 38.7% | activity at 0.5 µM [1]: 23.6% | SREBP (SREBP; 300 nM): 1.57

CC(C)(C)c1cc(N(CC2CC2)c2ncc(C(=O)O)cn2)cc(C(C)(C)C)c1
fold induction at 0.3 µM (SREBP; 300 nM, HepG2, Table 5): 1.46 ± 0.2

Cc1cc2c(cc1C1(c3ncc(C(=O)O)cn3)CC1)C(C)(C)CCC2(C)C [drawing 63]
fold induction at 0.3 µM (SREBP; 300 nM, HepG2, Table 5): 1.17 ± 0.1

CC(C)N(c1cc(C(C)(C)C)cc(C(C)(C)C)c1)c1ccc(C(=O)O)cn1
fold induction at 0.3 µM (SREBP; 300 nM, HepG2, Table 5): 1.65 ± 0.1

CC(C)CN(c1cc(C(C)(C)C)cc(C(C)(C)C)c1)c1ccc(C(=O)O)cn1 [drawing 122]
SREBP activation (SREBP): 1.7 fold induction and 2.0 fold induction

CCCN(c1cc(C(C)(C)C)cc(C(C)(C)C)c1)c1ccc(C(=O)O)cn1 [drawing 77]
fold induction at 0.3 µM (SREBP; 300 nM, HepG2, Table 5): 2.15 ± 0.7

CCN(c1cc(C(C)(C)C)cc(C(C)(C)C)c1)c1ccc(C(=O)O)cn1 [Compound 9, 6-[(3,5-di-tert-butylphenyl)(ethyl)amino]pyridine-3-carboxylic Acid]
PD-L1 (PD-L1; 100 nM): 39.7 | activity at 0.3 µM ([1]; read-out: iNOS (300 nM)): ~25% | activity at 0.125 µM [1]: 76.3% | activity at 0.5 µM [1]: 26.8% | SREBP (SREBP; 300 nM): 2.70

CCN(c1cc(C(F)(F)F)cc(C(F)(F)F)c1)c1ccc(C(=O)O)cn1 [Compound 15, 6-{[3,5-bis(trifluoromethyl)phenyl](ethyl)amino}pyridine-3-carboxylic Acid]
PD-L1 (PD-L1; 100 nM): 34.8 | activity at 0.125 µM [1]: 87% | activity at 0.5 µM [1]: 27.9% | SREBP (SREBP; 300 nM): 1.11

CC(C)(C)c1cc(N(CC2CC2)c2ccc(C(=O)O)cn2)cc(C(C)(C)C)c1 [Compound 14, 6-[(cyclopropylmethyl)(3,5-di-tert-butylphenyl)amino]pyridine-3-carboxylic Acid]
PD-L1 (PD-L1; 100 nM): 46.2 | activity at 0.125 µM [1]: 78.2% | activity at 0.5 µM [1]: 25.9% | SREBP (SREBP; 300 nM): 2.37

CCN(c1ccc2c(c1)C(C)(C)CCC2(C)C)c1ncc(C(=O)O)cn1 [CW-V-127]
PD-L1 Levels (PD-L1; 100 nM): 65.1 | PD-L1 Levels (PD-L1; 1000 nM): 64.5

C=C(c1ncc(C(=O)O)cn1)c1cc2c(cc1C)C(C)(C)CCC2(C)C [Pyrimidine Bexarotene, reference compound]
Safety SREBP mRNA fold induction at 300 nM (SREBP; 300 nM, HepG2, Table 5): 1.19 ± .1 fold

Cc1ccc(C(C)(C)C)cc1N(CC(C)C)c1ccc(C(=O)O)cn1
fold induction at 0.3 µM (SREBP; 300 nM, HepG2, Table 5): 4.93 ± 2.7

CC(C)CN(c1cc(C(F)(F)F)cc(C(F)(F)F)c1)c1ccc(C(=O)O)cn1
fold induction at 0.3 µM (SREBP; 300 nM, HepG2, Table 5): 1 ± 0.03

CCN(c1ccc(C(=O)O)cc1)c1cc(C(C)(C)C)c(OC)c(C(C)(C)C)c1 [drawing 81]
fold induction at 0.3 µM (SREBP; 300 nM, HepG2, Table 5): 1.63 ± 0.3

CC(C)CN(c1cc(C(C)(C)C)cc(C(C)(C)C)c1)c1ncc(C(=O)O)cn1
fold induction at 0.3 µM (SREBP; 300 nM, HepG2, Table 5): 2.46 ± 0.5

Cc1ccc(C(C)(C)C)cc1N(c1ccc(C(=O)O)cn1)C(C)C
fold induction at 0.3 µM (SREBP; 300 nM, HepG2, Table 5): 0.98 ± 0.06

CCN(c1ccc(C(=O)O)cn1)c1cc(C(C)(C)C)ccc1C [drawing 112]
activity at 0.3 µM [1, 2]: 60% | SREBP activation (SREBP): 2.7 fold induction and 2.2 fold induction

CCN(c1ccc(C(=O)O)cn1)c1cc(C(C)(C)C)ccc1C [drawing 72]
fold induction at 0.3 µM (SREBP; 300 nM, HepG2, Table 5): 1.59 ± 0.5

CCN(c1ccc(C(=O)O)cc1)c1cc(C(C)C)c(OCC(C)C)cc1C [drawing 80]
fold induction at 0.3 µM (SREBP; 300 nM, HepG2, Table 5): 1.45 ± 0.2

C=C(c1ccc(C(=O)O)cc1)c1cc2c(cc1C)CCCC2(C)C
activity at 0.3 µM [1, 2]: 55% | SREBP activation (SREBP): 2.0 fold induction

CCN(c1ccc(C(=O)O)cc1)c1cc(C(C)(C)C)cc(C(C)(C)C)c1 [drawing 64]
fold induction at 0.3 µM (SREBP; 300 nM, HepG2, Table 5): 1.37 ± 0.3

CCCCN(c1cc(C(C)(C)C)cc(C(C)(C)C)c1)c1ccc(C(=O)O)cn1 [drawing 123]
SREBP activation (SREBP): 5.3 fold induction

CC(C)(C)c1cc(N(CC2CC2)c2ccc(C(=O)O)cn2)cc(C(C)(C)C)c1 [drawing 78]
fold induction at 0.3 µM (SREBP; 300 nM, HepG2, Table 5): 2.48 ± 1.8

CCOc1c(N(CC)c2ccc(C(=O)O)cc2)cc(C(C)(C)C)cc1C(C)(C)C [drawing 107]
activity at 0.3 µM [1, 2]: 60% | SREBP activation (SREBP): 2.4 fold induction

CCN(c1cc(C(C)(C)C)cc(C(C)(C)C)c1)c1ncc(C(=O)O)cn1 [drawing 66]
fold induction at 0.3 µM (SREBP; 300 nM, HepG2, Table 5): 1.38 ± 0.4
